Experimental findings from patent publication US20240108623A1, “METHODS OF TREATING CANCER WITH POZIOTINIB” (BOARD OF REGENTS, THE UNIVERSITY OF TEXAS SYSTEM, priority 2021, published 2024) are described below.

Experiment [1] deals with PDXs with G719A mutations. As to the kind of experiment: PDX tumor growth. The following applies: 2.5 mg/kg poziotinib; 5 mg/kg and 20 mg/kg osimertinib; five days per week, day 28. It is filed as in vivo, mice.
Experiment [2] deals with exon 20 loop insertion mutations. As to the kind of experiment: Ba/F3 drug screening, mutant/WT IC50 by class of EGFR TKI. In kind it is cell-based. The following applies: Ba/F3 cells expressing exon 20 loop insertion mutations. Here is the method: (§1) Ba/F3 cell generation, drug screening, and IC50 approximations. Ba/F3 cells were obtained as a gift from Dr. Gordon Mills (MD Anderson Cancer Center), and maintained in RPMI (Sigma) containing 10% FBS, 1% penicillin/streptomycin, and 10 ng/ml recombinant mIL-3 (R&D Biosystems). To establish stable Ba/F3 cell lines, Ba/F3 cells were transduced with retroviruses containing mutant EGFR plasmids for 12-24 hours. Retroviruses were generated using Lipofectamine 2000 (Invitrogen) transfections of Phoenix 293T-ampho cells (Orbigen) with pBabe-Puro based vectors listed below in Table 6. Vectors were generated by GeneScript or Bioinnovatise using parental vectors from Addgene listed below in Table 6.
After 48-72 hours of transduction, 2 μg/ml puromycin (Invitrogen) was added to Ba/F3 cell lines in complete RPMI. To select for EGFR positive cell lines, cells were stained with PE-EGFR (Biolegend) and sorted by FACS. […] Plates were incubated for a minimum of 10 minutes, and bioluminescence was determined using a FLUOstar OPTIMA plate reader (BMG LABTECH). […] Statistical differences between groups were determined by ANOVA as described in the figure legends.
Heatmap generation and spearman correlations of groups. […] Hierarchical clustering was determined by Euclidean distance between Mut/WT ratios. […]

Experiment [3] relates to lung adenocarcinomas harboring EGFR L858R mutations, acquired L718V mutation. As to the kind of experiment: Case study of patient treated with second-generation TKI. It is filed as in vivo, human. The following applies: acquired L718V after first-line osimertinib. From the text: Case studies of patients treated with second-generation TKIs. Patients were consented under the GEMINI protocol (PA13-0589) which was approved in accordance with the MD Anderson Institutional Review Board.

For experiment [4], the system named is PDXs harboring EGFR S768dupSVD exon 20 loop insertion mutation. Briefly: PDX tumor growth. It is filed as in vivo, mice. The following applies: drug 5 days per week, day 21.
In experiment [5] the target is T1, EGFR A767insASV (Homo sapiens, UniProt P00533, DUP767-769).
T1 construct: expressed in transfected cells; host or cells: Ba/F3 (retroviral, pBabe-Puro based vector)
Briefly: Ba/F3 cell drug screening, Cell Titer Glo. In kind it is cell-based. The following applies: Ba/F3 cells expressing EGFR A767insASV; 72 hours. Here is the method:
as §1
(§2) After 48-72 hours of transduction, 2 μg/ml puromycin (Invitrogen) was added to Ba/F3 cell lines in complete RPMI. To select for EGFR positive cell lines, cells were stained with PE-EGFR (Biolegend) and sorted by FACS. After sorting, EGFR positive cells were maintained in RPMI containing 10% FBS, 1% penicillin/streptomycin, and 1 ng/ml EGF to support cell viability. Drug screening was performed as previously described^41,42. Shortly, cells were plated in 384-well plates (Greiner Bio-One) at 2000-3000 cells per well in technical triplicate. Seven different concentrations of TKIs or DMSO vehicle were added to reach a final volume of 40 μL per well. After 72 hours, 11p L of Cell Titer Glo (Promega) was added to each well. Plates were incubated for a minimum of 10 minutes, and bioluminescence was determined using a FLUOstar OPTIMA plate reader (BMG LABTECH). Raw bioluminescence values were normalized to DMSO control treated cells, and values were plotted in GraphPad Prism. Non-linear regressions were used to fit the normalized data with a variable slope, and IC50 values were determined by GraphPad prism by interpolation of concentrations at 50% inhibition. Drug screens were performed in technical triplicate on each plate and either duplicate or triplicate biological replicates. Mutant to WT ratios (Mut/WT) for each drug were calculated by dividing the IC50 values of mutant cell lines by the average IC50 value of Ba/F3 cells expressing WT EGFR supplemented with 10 ng/ml EGF for each drug. Statistical differences between groups were determined by ANOVA as described in the figure legends.

Experiment [6] has as its target T2, EGFR E709A (Homo sapiens, UniProt P00533, E709A).
T2 construct: expressed in transfected cells; host or cells: Ba/F3 (retroviral transduction, pBabe-Puro based vectors)
As to the kind of experiment: Ba/F3 cell drug screening, Cell Titer Glo. In kind it is cell-based. The following applies: Ba/F3 cells expressing EGFR E709A; 72 hours. On the procedure:
as §1, §2
Background: ATP-based viability assays read luminescence as a measure of living cells.

Experiment [7] concerns the target T3, EGFR Ex19del/L792H (Homo sapiens, UniProt P00533, DEL746-750/L792H).
T3 construct: expressed in transfected cells; host or cells: Ba/F3 (retroviral transduction, pBabe-Puro based vectors)
As to the kind of experiment: Ba/F3 cell drug screening, Cell Titer Glo. The following applies: Ba/F3 cells expressing EGFR Ex19del/L792H; 72 hours. In kind it is cell-based. Here is the method:
as §1, §2

The target of experiment [8] is T4, EGFR G719S T790M (Homo sapiens, UniProt P00533, G719S/T790M).
T4 construct: expressed in transfected cells; host or cells: Ba/F3 (retroviral transduction, pBabe-Puro based vectors)
As to the kind of experiment: Ba/F3 cell drug screening, Cell Titer Glo. It is filed as cell-based. To be noted: Ba/F3 cells expressing EGFR G719S T790M; 72 hours. On the procedure: as §1, §2

Experiment [9] concerns the target T5, EGFR L833V (Homo sapiens, UniProt P00533, L833V).
T5 construct: expressed in transfected cells; host or cells: Ba/F3 (retroviral, pBabe-Puro based vector)
Briefly: Ba/F3 cell drug screening, Cell Titer Glo. It is filed as cell-based. To be noted: Ba/F3 cells expressing EGFR L833V; 72 hours. Here is the method:
as §1, §2

The target in experiment [10] is T6, EGFR D770insNPG (Homo sapiens, UniProt P00533, INS770NPG).
T6 construct: expressed in transfected cells; host or cells: Ba/F3 (retroviral, pBabe-Puro based vector)
As to the kind of experiment: Ba/F3 cell drug screening, Cell Titer Glo. It is filed as cell-based. To be noted: Ba/F3 cells expressing EGFR D770insNPG; 72 hours. On the procedure: as §1, §2

Experiment [11] addresses T7, EGFR S768dupSVD V769M (Homo sapiens, UniProt P00533, INS768MDS/V769M).
T7 construct: expressed in transfected cells; host or cells: Ba/F3 (retroviral, pBabe-Puro based vector; created by GeneScript from EGFR S768dupSVD, c.2305G > A)
As to the kind of experiment: Ba/F3 cell drug screening, Cell Titer Glo. In kind it is cell-based. The following applies: Ba/F3 cells expressing EGFR S768dupSVD V769M; 72 hours. Here is the method:
as §1, §2

Experiment [12] has as its target T8, EGFR V774M (Homo sapiens, UniProt P00533, V774M).
T8 construct: host or cells: Ba/F3 (retroviral transduction, pBabe-Puro based vectors)
As to the kind of experiment: Ba/F3 cell drug screening, Cell Titer Glo. In kind it is cell-based. To be noted: Ba/F3 cells expressing EGFR V774M; 72 hours. On the procedure:
as §1, §2

For experiment [13], the target named is T9, EGFR Ex19del T854I (Homo sapiens, UniProt P00533, DEL746-750/T854I).
T9 construct: expressed in transfected cells; host or cells: Ba/F3 (murine pro-B cells), retroviral transduction with pBabe-Puro based vectors
Briefly: Ba/F3 cell drug screening, Cell Titer Glo. It is filed as cell-based. The following applies: Ba/F3 cells expressing EGFR Ex19del T854I; 72 hours. On the procedure:
as §1, §2

For the compound `C=CC(=O)N1CCC(Oc2cc3c(Nc4ccc(Cl)c(Cl)c4F)ncnc3cc2OC)CC1` [Poziotinib], in experiment [1], the “sensitivity of mice harboring PDXs with G719A mutations” value is reported as “most sensitive”. Also, in experiment [2], the “sensitivity of Ex20ins mutations in vitro” value is “sensitive”. In addition, in experiment [3], the “clinical outcome of patient” value was “clinical benefit of stable disease and tumor shrinkage”. Besides, the “sensitivity of Ex20ins mutations in vivo” value in [4] was “sensitive”. Further, the “Response of Cells Comprising Ex20ins EGFR Mutations to Poziotinib” value in experiment [5] came out at 0.3183; in experiment [10], 0.2889; in experiment [11] it was 0.07874. The “Response of Cells Comprising PACC EGFR Mutations to Second-Generation TKIs” value stood at 0.02334 in experiment [6], 0.3177 in experiment [7], 0.01859 in experiment [12] and 0.008664 in experiment [13]. Further, in experiment [8], the “Response of Cells Comprising T790M-like-S EGFR Mutations to Second-Generation TKIs” value is listed as 0.3262. Besides, in experiment [9], the “Response of Cells Comprising Classical-Like EGFR Mutations to Second-Generation TKIs” value is reported as 0.004716.
